One test concerns the target human orexin-2 receptor (Homo sapiens (Human), UniProt O43614). Put plainly: FLIPR Ca2+ Flux Assay, orexin-2 receptor (hOX2R FLIPR). It counts as cell-based. Conditions: CHO cells expressing the human orexin-2 receptor; agonist 70 pM Ala-6,12 human orexin-A. In short, it runs like this:
(§1)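 Antagonism is measured as loss of the intracellular Ca2+ signal that 70 pM Ala-6,12 human orexin-A triggers in dye-loaded CHO cells expressing rat OX1R or human OX2R. Compounds are given 5 min beforehand, and IC50 is taken as 50% inhibition of the agonist peak.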
In general terms: A change in cytosolic calcium serves as a functional read-out for many receptors and channels.

The target in test [1] is hOXIR (orexin-1 receptor) (Homo sapiens, UniProt O43613). The test can be described thus: FLIPR Ca2+ Flux Assay, orexin-1 receptor (hOXIR FLIPR). It counts as cell-based. The conditions noted are these: CHO cells expressing the orexin-1 receptor (method text: rat; table head: hOXIR); agonist 70 pM Ala-6,12 human orexin-A. In a few lines: as §1

Chain of human orexin-2 receptor (O43614 whole entry): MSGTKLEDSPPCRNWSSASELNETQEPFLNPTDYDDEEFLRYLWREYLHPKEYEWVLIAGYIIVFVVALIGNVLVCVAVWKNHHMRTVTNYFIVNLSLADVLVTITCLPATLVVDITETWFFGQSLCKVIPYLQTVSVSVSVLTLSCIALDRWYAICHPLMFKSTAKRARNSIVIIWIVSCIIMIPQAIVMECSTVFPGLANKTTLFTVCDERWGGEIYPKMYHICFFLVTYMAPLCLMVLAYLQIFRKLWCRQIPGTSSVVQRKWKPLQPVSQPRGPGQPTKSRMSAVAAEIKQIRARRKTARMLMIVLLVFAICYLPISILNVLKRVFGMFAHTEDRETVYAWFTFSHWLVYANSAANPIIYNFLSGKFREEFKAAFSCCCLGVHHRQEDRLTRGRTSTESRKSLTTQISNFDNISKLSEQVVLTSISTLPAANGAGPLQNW

Usually IC50 stands for the midpoint of a concentration-inhibition curve. Low values mean higher potency, high ones lower potency. With `C[C@@H]1CC[C@@H](n2cc(C(C)(C)O)cn2)CN1C(=O)c1ccccc1[C@@H]1CC1(F)F` [Example 85, 2-{1-[(3R,6R)-1-({2-[(1S)-2,2-Difluorocyclopropyl]phenyl}carbonyl)-6-methylpiperidin-3-yl]-1H-pyrazol-4-yl}propan-2-ol], the IC50 is 9.4 nM at human orexin-2 receptor and 2.64 µM in test [1].

For the compound `C[C@@H]1CC[C@@H](n2cc(C(C)(C)O)cn2)CN1C(=O)c1ccccc1[C@H]1CC1(F)F` [Example 86, 2-{1-[(3R,6R)-1-({2-[(1R)-2,2-Difluorocyclopropyl]phenyl}carbonyl)-6-methylpiperidin-3-yl]-1H-pyrazol-4-yl}propan-2-ol], the IC50 at human orexin-2 receptor is 152 nM; in test [1], above 10 µM.

Turning to `C[C@@H]1CC[C@@H](n2cc(C(C)(C)O)cn2)CN1C(=O)c1ccccc1C1CCC1` [Example 87, 2-(1-{(3R,6R)-1-[(2-Cyclobutylphenyl)carbonyl]-6-methylpiperidin-3-yl}-1H-pyrazol-4-yl)propan-2-ol], the IC50 on human orexin-2 receptor turned out to be 49.3 nM; in test [1], 3.29 µM.

In the case of `C[C@@H]1CC[C@@H](n2cc(C(C)(C)O)cn2)CN1C(=O)c1ccccc1SC(F)(F)F` [Example 88, 2-{1-[(3R,6R)-6-Methyl-1-({2-[(trifluoromethyl)sulfanyl]phenyl}carbonyl)piperidin-3-yl]-1H-pyrazol-4-yl}propan-2-ol], the IC50 at human orexin-2 receptor worked out at 15.2 nM; in test [1] it was 7.93 µM.

For the compound `CCOc1ncccc1C(=O)N1C[C@H](n2cc(C(C)(C)O)cn2)CC[C@H]1C` [Example 89, 2-(1-{(3R,6R)-1-[(2-Ethoxypyridin-3-yl)carbonyl]-6-methylpiperidin-3-yl}-1H-pyrazol-4-yl)propan-2-ol], the results for the IC50 (at human orexin-2 receptor; in test [1]) were 283 nM and above 10 µM, respectively.

For the compound `C[C@@H]1CC[C@@H](n2cc(C(C)(C)O)cn2)CN1C(=O)c1cccnc1-n1cccn1` [Example 90, 2-{1-[(3R,6R)-6-Methyl-1-{[2-(1H-pyrazol-1-yl)pyridin-3-yl]carbonyl}piperidin-3-yl]-1H-pyrazol-4-yl}propan-2-ol], the results for the IC50 (on human orexin-2 receptor; in test [1]) were 33.6 nM and above 10 µM, respectively.

Take `C[C@@H]1CC[C@@H](n2cc(C(C)(C)O)cn2)CN1C(=O)c1ccc(F)cc1-n1nccn1` [Example 91, 2-{1-[(3R,6R)-1-{[4-Fluoro-2-(2H-1,2,3-triazol-2-yl)phenyl]carbonyl}-6-methylpiperidin-3-yl]-1H-pyrazol-4-yl}propan-2-ol]: the IC50 on human orexin-2 receptor is 18.8 nM; in test [1] it was above 10 µM.

In the case of `C[C@@H]1CC[C@@H](n2cc(C(C)(C)O)cn2)CN1C(=O)c1cccnc1-c1ccccc1` [Example 92, 2-(1-{(3R,6R)-6-Methyl-1-[(2-phenylpyridin-3-yl)carbonyl]piperidin-3-yl}-1H-pyrazol-4-yl)propan-2-ol], the IC50 on human orexin-2 receptor was 195 nM; in test [1], above 10 µM.

As for `C[C@@H]1CC[C@@H](n2cc(C(C)(C)O)cn2)CN1C(=O)c1ccccc1-n1cccn1` [Example 93, 2-{1-[(3R,6R)-6-Methyl-1-{[2-(1H-pyrazol-1-yl)phenyl]carbonyl}piperidin-3-yl]-1H-pyrazol-4-yl}propan-2-ol], the IC50 at human orexin-2 receptor is 92.7 nM; in test [1] it was above 10 µM.

Turning to `C[C@@H]1CC[C@@H](n2cc(C(C)(C)O)cn2)CN1C(=O)c1cccnc1OCC(F)(F)F` [Example 94, 2-{1-[(3R,6R)-6-Methyl-1-{[2-(2,2,2-trifluoroethoxy)pyridin-3-yl]carbonyl}piperidin-3-yl]-1H-pyrazol-4-yl}propan-2-ol], the IC50 at human orexin-2 receptor is 37 nM; in test [1], above 10 µM.

As for `C[C@@H]1CC[C@@H](n2cc(C(C)(C)O)cn2)CN1C(=O)c1nccnc1-n1cccn1` [Example 95, 2-{1-[(3R,6R)-6-Methyl-1-{[3-(1H-pyrazol-1-yl)pyrazin-2-yl]carbonyl}piperidin-3-yl]-1H-pyrazol-4-yl}propan-2-ol], the figures for the IC50 (at human orexin-2 receptor; in test [1]) were 271 nM and above 10 µM, respectively.

On to `COc1ccc(C(=O)N2C[C@H](n3cc(C(C)(C)O)cn3)CC[C@H]2C)c(C2CC2)n1` [Example 96, 2-(1-{(3R,6R)-1-[(2-Cyclopropyl-6-methoxypyridin-3-yl)carbonyl]-6-methylpiperidin-3-yl}-1H-pyrazol-4-yl)propan-2-ol], for which the IC50 at human orexin-2 receptor is 1600 nM; in test [1], above 10 µM.

For `CC(C)Oc1ncccc1C(=O)N1C[C@H](n2cc(C(C)(C)O)cn2)CC[C@H]1C` [Example 97, 2-{1-[(3R,6R)-6-Methyl-1-{[2-(1-methylethoxy)pyridin-3-yl]carbonyl}piperidin-3-yl]-1H-pyrazol-4-yl}propan-2-ol], the IC50 on human orexin-2 receptor is 240 nM; in test [1], above 10 µM.

Regarding `C[C@@H]1CC[C@@H](n2cc(C(C)(C)O)cn2)CN1C(=O)c1cccnc1OCC(F)F` [Example 98, 2-{1-[(3R,6R)-1-{[2-(2,2-Difluoroethoxy)pyridin-3-yl]carbonyl}-6-methylpiperidin-3-yl]-1H-pyrazol-4-yl}propan-2-ol], the IC50 on human orexin-2 receptor is 58.8 nM; in test [1], above 10 µM.

`C[C@@H]1CC[C@@H](n2cc(C(C)(C)O)cn2)CN1C(=O)c1ccccc1CC(F)F` [Example 99, 2-{1-[(3R,6R)-1-{[2-(2,2-Difluoroethyl)phenyl]carbonyl}-6-methylpiperidin-3-yl]-1H-pyrazol-4-yl}propan-2-ol]: the figures for the IC50 (on human orexin-2 receptor; in test [1]) were 38.4 nM and above 10 µM, respectively.

As for `COc1ccc(C(=O)N2C[C@H](n3cc(C(C)(C)O)cn3)CC[C@H]2C)c(C2CCC2)n1` [Example 100, 2-(1-{(3R,6R)-1-[(2-Cyclobutyl-6-methoxypyridin-3-yl)carbonyl]-6-methylpiperidin-3-yl}-1H-pyrazol-4-yl)propan-2-ol], the IC50 is 60.8 nM on human orexin-2 receptor and above 10 µM in test [1].

Turning to `C[C@@H]1CC[C@@H](n2cc(C(C)(C)O)cn2)CN1C(=O)c1nccnc1-n1nccn1` [Example 101, 2-{1-[(3R,6R)-6-Methyl-1-{[3-(2H-1,2,3-triazol-2-yl)pyrazin-2-yl]carbonyl}piperidin-3-yl]-1H-pyrazol-4-yl}propan-2-ol], the IC50 at human orexin-2 receptor is 479 nM; in test [1], above 10 µM.

Take `C[C@@H]1CC[C@@H](n2cc([C@@H](O)C(F)(F)F)cn2)CN1C(=O)c1ccccc1-n1nccn1` [Example 102, (1R)-2,2,2-Trifluoro-1-{1-[(3R,6R)-6-methyl-1-{[2-(2H-1,2,3-triazol-2-yl)phenyl]carbonyl}piperidin-3-yl]-1H-pyrazol-4-yl}ethanol]: the figures for the IC50 (at human orexin-2 receptor; in test [1]) were 124 nM and above 10 µM, respectively.

As to `C[C@@H]1CC[C@@H](n2cc([C@H](O)C(F)(F)F)cn2)CN1C(=O)c1ccccc1-n1nccn1` [Example 103, (1S)-2,2,2-Trifluoro-1-{1-[(3R,6R)-6-methyl-1-{[2-(2H-1,2,3-triazol-2-yl)phenyl]carbonyl}piperidin-3-yl]-1H-pyrazol-4-yl}ethanol], the IC50 was 102 nM at human orexin-2 receptor and above 10 µM in test [1].

In the case of `C[C@@H]1CC[C@@H](n2cc(C(C)(O)C(F)(F)F)cn2)CN1C(=O)c1ccccc1-n1nccn1` (stereo partly drawn) [Example 104, 1,1,1-Trifluoro-2-{1-[(3R,6R)-6-methyl-1-{[2-(2H-1,2,3-triazol-2-yl)phenyl]carbonyl}piperidin-3-yl]-1H-pyrazol-4-yl}propan-2-ol], the IC50 was 13.4 nM on human orexin-2 receptor and 2.01 µM in test [1].

Take `C[C@@H]1CC[C@@H](n2cc([C@@](C)(O)C(F)(F)F)cn2)CN1C(=O)c1ccccc1-n1nccn1` [Example 105, (2R)-1,1,1-Trifluoro-2-{1-[(3R,6R)-6-methyl-1-{[2-(2H-1,2,3-triazol-2-yl)phenyl]carbonyl}piperidin-3-yl]-1H-pyrazol-4-yl}propan-2-ol]: the IC50 is 9.4 nM at human orexin-2 receptor and 2.73 µM in test [1].

As to `C[C@@H]1CC[C@@H](n2cc([C@](C)(O)C(F)(F)F)cn2)CN1C(=O)c1ccccc1-n1nccn1` [Example 106, (2S)-1,1,1-Trifluoro-2-{1-[(3R,6R)-6-methyl-1-{[2-(2H-1,2,3-triazol-2-yl)phenyl]carbonyl}piperidin-3-yl]-1H-pyrazol-4-yl}propan-2-ol], the figures for the IC50 (at human orexin-2 receptor; in test [1]) were 10.6 nM and 2.06 µM, respectively.

For the compound `Cc1nn([C@@H]2CC[C@@H](C)N(C(=O)c3ccccc3-n3nccn3)C2)cc1C(C)(C)O` [Example 107, 2-{3-Methyl-1-[(3R,6R)-6-methyl-1-{[2-(2H-1,2,3-triazol-2-yl)phenyl]carbonyl}piperidin-3-yl]-1H-pyrazol-4-yl}propan-2-ol], the IC50 came to 13.8 nM on human orexin-2 receptor and 0.339 µM in test [1].

For `Cc1c(C(C)(C)O)cnn1[C@@H]1CC[C@@H](C)N(C(=O)c2ccccc2-n2nccn2)C1` [Example 108, 2-{5-Methyl-1-[(3R,6R)-6-methyl-1-{[2-(2H-1,2,3-triazol-2-yl)phenyl]carbonyl}piperidin-3-yl]-1H-pyrazol-4-yl}propan-2-ol], the IC50 came to 73.2 nM at human orexin-2 receptor and 3.37 µM in test [1].

The record behind these values is patent US10010539B2, “Pyrazole, triazole and tetrazole orexin receptor antagonists” (MERCK SHARP & DOHME CORP., priority 2014, dated 2018).
